# Experimental data reported in patent US20200405708A1, “TREATMENT OF HEREDITARY ANGIOEDEMA” (Attune Pharmaceuticals, Inc., priority 2018, published 2020).
# Where “and” joins values, the source holds several entries; their conditions need not be identical. Identical values can stand only once. Entries after “also recorded” stand apart in the source; their conditions may differ.
# Assays:
# cytochrome P450 (CYP) = experiment: cytochrome P450 inhibition; format: in vitro ADME
# plasma kallikrein [1] = biological target: T1, plasma kallikrein (Homo sapiens, UniProt P03952); experiment: contact activation assay in human plasma (ex vivo); format: biochemical; set-up: from tissue; host or cells: human plasma
# Procedure: (§1) Selectivity was evaluated by biochemical inhibition on plasma kallikrein relative to other serine proteases, including tissue kallikrein 5, plasmin, Factor Xa, Factor VIIa, thrombin, and tissue plasminogen activator (tPA). Potency was evaluated by biochemical inhibition and contact activation assays in human plasma. Pharmacokinetic exposure was evaluated in monkeys after a single oral administration of Compound A at 15 mg/kg. The no-observed-adverse-effect-level (NOAEL) was evaluated in 14-day non-GLP rat and monkey toxicology studies; animals were given daily doses of 100 or 300 mg/kg.
# Target sequence in this assay (P03952 391-638 limits assumed): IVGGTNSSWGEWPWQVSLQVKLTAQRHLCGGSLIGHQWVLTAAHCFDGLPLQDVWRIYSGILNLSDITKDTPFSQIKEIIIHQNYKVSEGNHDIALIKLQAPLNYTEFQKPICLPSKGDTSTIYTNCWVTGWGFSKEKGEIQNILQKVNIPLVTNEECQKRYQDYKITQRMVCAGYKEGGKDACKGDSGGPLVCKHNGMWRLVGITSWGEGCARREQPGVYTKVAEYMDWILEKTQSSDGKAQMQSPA
# Target sequence in this assay (P03952 20-390 partner limits assumed): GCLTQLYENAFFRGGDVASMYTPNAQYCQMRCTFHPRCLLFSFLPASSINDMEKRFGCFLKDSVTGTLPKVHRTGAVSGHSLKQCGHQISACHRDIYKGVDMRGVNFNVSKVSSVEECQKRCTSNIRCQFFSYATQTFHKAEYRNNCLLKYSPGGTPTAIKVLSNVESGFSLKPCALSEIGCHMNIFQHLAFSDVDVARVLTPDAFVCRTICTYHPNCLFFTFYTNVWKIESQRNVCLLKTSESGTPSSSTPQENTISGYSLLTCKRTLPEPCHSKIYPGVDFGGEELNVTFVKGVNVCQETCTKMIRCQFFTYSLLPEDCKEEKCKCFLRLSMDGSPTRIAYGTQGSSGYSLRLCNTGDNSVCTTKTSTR
# [2] = tested on: tissue kallikrein 5, tissue kallikrein 7, tissue kallikrein 14, plasmin, Factor Xa, Factor VIIa, thrombin, tissue plasminogen activator (tPA); experiment: selectivity by biochemical inhibition versus other serine proteases
# Procedure: as §1
# [3] = safety and tolerability in single-ascending-dose study, healthy male participants; format: in vivo, human; settings: all 6 dose cohorts
# Procedure: (§2) A randomized, double-blind, placebo-controlled single ascending dose and crossover food effect study
# (§3) 48 healthy male participants (6 active:2 placebo in each of the 6 dose cohorts) received a single daily dose of Compound A 50 mg, 100 mg, 150 mg, 200 mg, 400 mg, or 800 mg. Subjects in the 100 mg dose cohort received first dose of Compound A under fasted condition in period 1 and after a 7-day washout, a second dose 30 minutes after the start of a high fat, high caloric meal in period 2. Serial blood draws were collected to calculate PK parameters, including area under the curve (AUC) from time zero to infinity (AUC), maximum concentration (Cmax), time of maximum concentration (Tmax), and half-life. Safety measures including treatment-emergent adverse events (TEAEs) were assessed.
# [4] = toxicology and genotoxicity studies
# From the text: FIG. 10. A table showing toxicology/genotoxicity of Compound A.
# [5] = pharmacokinetic exposure after single oral dose in monkeys; format: in vivo, monkey
# Procedure: as §1
# [6] = bioavailability after single oral administration, rats; format: in vivo, rat; settings: single oral 30 mg/kg
# [7] = recovery of radiolabeled [14C] Compound A after single oral dosing in rats; format: in vivo, rat
# Procedure: (§4) FIG. 7. A table showing metabolism and pharmacokinetics results of single oral dosing of Compound A. Metabolism study was conducted with radiolabeled [^14C] Compound A.
# [8] = bioavailability after single oral administration, dogs; format: in vivo, dog; settings: single oral 30 mg/kg
# [9] = bioavailability after single oral administration, monkeys; format: in vivo, monkey; settings: single oral 30 mg/kg
# [10] = single-ascending-dose and food effect pharmacokinetics in healthy male participants; format: in vivo; set-up: Mean C24: unit not given here; settings: human; for AUCinf, geometric mean (geometric % CV) / Cmax, geometric mean (geometric % CV): n = 6; for Mean Cmax: in ng/mL; for Mean AUCinf: in ng·h/mL
# Procedure: as §2, §3
# [11] = 14-day non-GLP rat and monkey toxicology studies; format: in vivo; settings: daily doses of 100 or 300 mg/kg
# Procedure: as §1
# [12] = single dose safety pharmacology in rat and monkey; format: in vivo
# From the text: FIG. 9. A table showing safety pharmacology of Compound A single dose in rat and monkey.
# [13] = 28-day repeat dose general toxicity study in monkeys; format: in vivo, monkey
# Procedure: FIG. 8. Graphic representation of 28-day repeat exposure in monkey toxicology study (NOAEL (100 mg/kg/day) at Day 28.
# plasma kallikrein [14] = biological target: T1, plasma kallikrein; experiment: biochemical inhibition assay of plasma kallikrein
# Procedure: as §1
# Target sequence in this assay (P03952 20-638): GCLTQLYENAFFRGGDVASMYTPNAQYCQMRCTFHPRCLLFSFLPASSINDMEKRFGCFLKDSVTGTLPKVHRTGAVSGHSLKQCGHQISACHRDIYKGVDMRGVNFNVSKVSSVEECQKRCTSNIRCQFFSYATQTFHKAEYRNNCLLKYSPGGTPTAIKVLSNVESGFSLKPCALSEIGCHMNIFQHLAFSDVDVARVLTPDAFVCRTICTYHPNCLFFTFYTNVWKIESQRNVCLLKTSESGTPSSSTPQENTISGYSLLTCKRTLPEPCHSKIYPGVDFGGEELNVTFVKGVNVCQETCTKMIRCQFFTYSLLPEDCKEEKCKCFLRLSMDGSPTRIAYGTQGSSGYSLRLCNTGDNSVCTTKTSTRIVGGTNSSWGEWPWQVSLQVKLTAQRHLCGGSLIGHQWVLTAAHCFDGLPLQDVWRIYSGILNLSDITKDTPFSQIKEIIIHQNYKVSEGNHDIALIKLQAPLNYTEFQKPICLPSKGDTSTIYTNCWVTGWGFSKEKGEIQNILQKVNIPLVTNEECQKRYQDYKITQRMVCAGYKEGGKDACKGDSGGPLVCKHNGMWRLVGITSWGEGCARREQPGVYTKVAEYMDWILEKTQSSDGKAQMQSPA
# [15] = 28-day repeat dose general toxicity study in rats
# [16] = metabolism and pharmacokinetics studies of single oral dosing, all species; format: in vivo
# Procedure: as §4
# [17] = monkeys, single oral dose 15 mg/kg
# [18] = 100 mg, fed (high fat, high caloric meal)
molecule,measurement,setting,value
"Cc1cc(N)nc(C)c1CNC(=O)c1ccnc(Cc2ccc3ncc(Cl)cc3c2)c1 [Compound A, N-((6-amino-2,4-dimethylpyridin-3-yl)methyl)-2-((3-chloroquinolin-6-yl)methyl)isonicotinamide]",inhibition of P450 enzymes,cytochrome P450 (CYP),does not significantly inhibit P450 enzymes
same,fold more potent than C1-INH at inhibiting plasma kallikrein,plasma kallikrein [1]; contact activation assay,11 fold and ~10 fold
same,EC50,plasma kallikrein [1]; human plasma,8.2 nM
same,EC90,plasma kallikrein [1]; human plasma,61.6 nM
same,selectivity for plasma kallikrein versus other closely related serine proteases,[2],> 2000 fold
same,drug-related TEAEs and serious AEs,[3],"No drug-related TEAEs and no serious AEs; also recorded: no moderate or severe TEAEs, no drug-related TEAEs, no SAEs, and no dose limiting toxicity"
same,safety and tolerability (in words),[3],generally safe and well tolerated
same,severity of TEAEs,[3],all TEAEs were mild (grade 1)
same,number of TEAEs observed,[3]; 50-800 mg single dose,29
same,genotoxicity or coagulation issues,[4],no genotoxicity or coagulation issues were noted
same,24-h exposure relative to EC90,"[5]; monkey, in vivo, po, 15 mg/kg",4 fold
same,Cmax exposure relative to EC90,"[5]; monkey, in vivo, po, 15 mg/kg",25 fold
same,24-hour exposure (C24) relative to EC50,[5]; [17],30 fold
same,Cmax exposure relative to EC50,[5]; [17],> 180 ×
same,fold below the no-observed-adverse-effect-level (NOAEL),[5]; single dose 15 mg/kg,20 fold
same,bioavailability,[6],> 40%
same,recovery of radiolabeled compound (in words),[7],comprehensive recovery of radiolabeled Compound A
same,recovery,[7]; intact and bile duct cannulated rats,99%
same,bioavailability,[8],> 40%
same,bioavailability,[9],> 40%
same,"AUCinf % Ratio, fed vs. fasted",[10]; 100 mg,150.3%
same,"Cmax % Ratio, fed vs. fasted",[10]; 100 mg,128.5%
same,"AUCinf, geometric mean (geometric % CV)","[10]; 100 mg, fasted",2573 (135.1) ng*hr/mL
same,"Cmax, geometric mean (geometric % CV)","[10]; 100 mg, fasted",297 (236.1) ng/mL
same,"AUCinf, geometric mean (geometric % CV)",[10]; [18],3866 (16.1) ng*hr/mL
same,"Cmax, geometric mean (geometric % CV)",[10]; [18],382 (35.8) ng/mL
same,food effect on PK,"[10]; 100 mg, high fat meal vs fasted",Minimal food effect
same,dose proportionality of AUCinf and Cmax / systemic exposure,"[10]; 50-800 mg, fasted",increased proportionally with dose; also recorded: largely proportional to dose
same,"AUCinf, mean (% CV)","[10]; fasted, 50 mg",2056 (20.5)^ ng*hr/mL
same,"Cmax, mean (% CV)","[10]; fasted, 50 mg",244 (20.1) ng/mL
same,"Half-Life, mean (% CV)","[10]; fasted, 50 mg",6.5 (24.1) Hours
same,"Tmax, mean (% CV)","[10]; fasted, 50 mg",1.8 (43.3) Hours
same,"AUCinf, mean (% CV)","[10]; fasted, 100 mg",3325 (47.3) ng*hr/mL
same,"Cmax, mean (% CV)","[10]; fasted, 100 mg",449 (59.3) ng/mL
same,"Half-Life, mean (% CV)","[10]; fasted, 100 mg",8.0 (33.0) Hours
same,"Tmax, mean (% CV)","[10]; fasted, 100 mg",2.8 (109.7) Hours
same,"AUCinf, mean (% CV)","[10]; fasted, 150 mg",8569 (37.9)^ ng*hr/mL
same,"Cmax, mean (% CV)","[10]; fasted, 150 mg",848 (33.9) ng/mL
same,"Half-Life, mean (% CV)","[10]; fasted, 150 mg",9.7 (15.4) Hours
same,"Tmax, mean (% CV)","[10]; fasted, 150 mg",1.9 (19.6) Hours
same,"Half-Life, mean (% CV)","[10]; fasted, 200 mg",9.8 (11.3) Hours
same,"Tmax, mean (% CV)","[10]; fasted, 200 mg",2.3 (50.2) Hours
same,"AUCinf, mean (% CV)","[10]; fasted, 200 mg (5 subjects)",8382 (30.2)^ ng*hr/mL
same,"Cmax, mean (% CV)","[10]; fasted, 200 mg (5 subjects)",693 (43.0) ng/mL
same,"AUCinf, mean (% CV)","[10]; fasted, 400 mg",14010 (21.1) ng*hr/mL
same,"Cmax, mean (% CV)","[10]; fasted, 400 mg",1351 (18.8) ng/mL
same,"Half-Life, mean (% CV)","[10]; fasted, 400 mg",9.5 (9.9) Hours
same,"Tmax, mean (% CV)","[10]; fasted, 400 mg",2.4 (57.7) Hours
same,"AUCinf, mean (% CV)","[10]; fasted, 800 mg",30180 (35.7) ng*hr/mL
same,"Cmax, mean (% CV)","[10]; fasted, 800 mg",3015 (32.0) ng/mL
same,"Half-Life, mean (% CV)","[10]; fasted, 800 mg",9.0 (9.9) Hours
same,"Tmax, mean (% CV)","[10]; fasted, 800 mg",2.9 (33.3) Hours
same,Mean C24,"[10]; fasted, dose 50",19.3
same,Mean Cmax,"[10]; fasted, dose 50",244
same,Mean AUCinf,"[10]; fasted, dose 50",2056
same,Mean C24,"[10]; fasted, dose 100",27.7
same,Mean Cmax,"[10]; fasted, dose 100",449
same,Mean AUCinf,"[10]; fasted, dose 100",3325
same,Mean C24,"[10]; fasted, dose 150",83.6
same,Mean Cmax,"[10]; fasted, dose 150",848
same,Mean AUCinf,"[10]; fasted, dose 150",8569
same,Mean C24,"[10]; fasted, dose 200",69.2
same,Mean Cmax,"[10]; fasted, dose 200",693
same,Mean AUCinf,"[10]; fasted, dose 200",8382
same,Mean C24,"[10]; fasted, dose 400",124.0
same,Mean Cmax,"[10]; fasted, dose 400",1351
same,Mean AUCinf,"[10]; fasted, dose 400",14010
same,Mean C24,"[10]; fasted, dose 800",274.0
same,Mean Cmax,"[10]; fasted, dose 800",3015
same,Mean AUCinf,"[10]; fasted, dose 800",30180
same,no-observed-adverse-effect-level (NOAEL),[11],300 mg/kg
same,"mortality or adverse effects on CNS, respiratory, cardiovascular functions",[12],"no mortality or adverse effects were observed on central nervous system, respiratory, and cardiovascular functions"
same,Cmax exposure relative to EC50,"[13]; NOAEL dose, day 28",> 4500 ×
same,24-h exposure relative to EC90,"[13]; monkey, in vivo, 100 mg/kg/day",20 fold
same,Cmax exposure relative to EC90,"[13]; monkey, in vivo, 100 mg/kg/day",> 600 fold
same,findings at high-dose level,"[13]; monkey, in vivo, 300 mg/kg/day",adverse findings in monkeys reversed upon dose reduction to 150 mg/kg/day dose
same,NOAEL,"[13]; monkeys, 28-day repeat dose",100 mg/kg/day
same,IC50,plasma kallikrein [14],2.7 nM
same,IC90,plasma kallikrein [14],16.2 nM
same,fold more potent than C1-INH at inhibiting plasma kallikrein,plasma kallikrein [14]; biochemical inhibition assay,9 fold and ~10 fold
same,findings at high-dose level,"[15]; 300 mg/kg/day, not considered adverse",decreases in body weight and food consumption
same,NOAEL,[15]; 28-day repeat dose,300 mg/kg/day
same,bioavailability (in words),[16],good bioavailability in all species
"C1-INH: C1 inhibitor (C1-esterase inhibitor, serpin), which inhibits the activity of plasma kallikrein; comparator [Compound C1-INH]",EC50,plasma kallikrein [1]; human plasma,92.4 nM
same,IC50,plasma kallikrein [14],25.4 nM
same,IC90,plasma kallikrein [14],157 nM
